The source of these data is ChEMBL document CHEMBL2346639, “A new dehydroabietic acid-based arylamine fluorescent probe: Synthesis, structure analysis and in vitro biodiagnose function” (Bioorg Med Chem Lett, 2013).

Data set [1] can be described thus: Cellular uptake in human A549 cells cytoplasm after 4 hrs by fluorescence microscopic analysis. The class given is ADME, cell-based. The conditions noted are these: a549, 4 h.
Data set [2] in a line: Photostability of the compound in DMSO at 1 x 10^-6 M measured after UV-irradiation by fluorescence spectra analysis. The format is physicochemical. The conditions noted are these: 1 µM.
Data set [3] in a line: Solubility of the compound in water. The class given is physicochemical.
Data set [4] in a line: Photostability of the compound in methanol at 1 x 10^-6 M measured after UV-irradiation by fluorescence spectra analysis. The format is physicochemical. The conditions noted are these: 1 µM.
A short description of data set [5]: Cellular uptake in human HeLa cells cytoplasm after 4 hrs by fluorescence microscopic analysis. The class given is ADME, cell-based.
Data set [6] concerns A549. In words: Cytotoxicity against human A549 cells assessed as effect on cell survival at 5 to 25 uM after 24 hrs by MTT assay. The class given is cell-based. The conditions noted are these: a549, 24 h.
Data set [7] deals with A549. In words: Cellular uptake in human A549 cells after 4 hrs by fluorescence microscopic analysis. The class given is ADME, cell-based. To be noted: a549, 4 h.
Data set [8] in a line: Cytotoxicity against human HeLa cells assessed as cell survival at 1 uM after 24 hrs by MTT assay relative to control. The class given is cell-based. The conditions noted are these: read-out: Survival. For orientation: Tetrazolium dyes change colour on reduction, which living cells bring about.
A short description of data set [9]: Photostability of the compound in water at 10 uM measured 30 mins after UV-irradiation by fluorescence spectra analysis. The format is physicochemical. To be noted: buffer, 0.5 h.
Data set [10] is described as follows: Cellular uptake in human SMMC7721 cells cytoplasm after 4 hrs by fluorescence microscopic analysis. The class given is ADME, cell-based. To be noted: smmc-7721, 4 h.
The nature of data set [11]: Cytotoxicity against human SGC7901 cells assessed as cell survival at 1 uM after 24 hrs by MTT assay relative to control. The format is cell-based. The conditions noted are these: SGC-7901 cells, read-out: Survival.
The nature of data set [12]: Cytotoxicity against human SMMC7721 cells assessed as cell survival at 1 uM after 24 hrs by MTT assay relative to control. The format is cell-based. To be noted: SMMC-7721 cells, read-out: Survival.
A short description of data set [13]: Cellular uptake in human SGC7901 cells cytoplasm after 4 hrs by fluorescence microscopic analysis. The format is ADME, cell-based. To be noted: sgc-7901, 4 h.
Data set [14] can be described thus: Photostability of the compound in dichloromethane at 1 x 10^-6 M measured after UV-irradiation by fluorescence spectra analysis. The class given is physicochemical. To be noted: 1 µM.
The nature of data set [15]: Cytotoxicity against human A549 cells assessed as cell survival at 1 uM after 24 hrs by MTT assay relative to control. The class given is cell-based. The conditions noted are these: read-out: Survival.
For another data set, the system named is SGC-7901. Kind of data set: Cellular uptake in human SGC7901 cells after 4 hrs by fluorescence microscopic analysis. The class given is ADME, cell-based. The conditions noted are these: sgc-7901, 4 h.
A further data set relates to HeLa. In words: Cellular uptake in human HeLa cells after 4 hrs by fluorescence microscopic analysis. The class given is ADME, cell-based.
For the next data set, the system named is SMMC-7721. In words: Cellular uptake in human SMMC7721 cells after 4 hrs by fluorescence microscopic analysis. The format is ADME, cell-based. To be noted: smmc-7721, 4 h.
Data set [16] in a line: Photostability of the compound in water at 1 x 10^-6 M measured after UV-irradiation by fluorescence spectra analysis. The class given is physicochemical. To be noted: buffer, 1 µM.

Each structure is given as a SMILES string.

Usually solubility stands for the dissolved amount per volume that the medium holds. A lower solubility goes with little dissolved substance. Consider `COC(=O)[C@]1(C)CCC[C@]2(C)c3ccc(Nc4cccc5ccccc45)cc3CC[C@@H]12`, for which the Drug uptake result (in data set [1]; in data set [5]; in the data set with A549 [7]; in [10]; in [13]; in the data set on SGC-7901) was “Active” in each case. The Drug uptake entry in the data set on HeLa and in the data set on SMMC-7721 was “Active” in each case. Further, the Stability result is “Unstable” in data set [2]; “Unstable” in data set [4]; “Stable” in data set [9]; “Unstable” in data set [14]; “Stable” in data set [16]. Also, the solubility in data set [3] was above 15 µM. For the same compound, in the data set with A549 [6], the Activity entry is “Non-toxic”. In addition, the viability at 24 h, 1 µM in [8] was 97.3%; in data set [11], 94.5%; in [12] it was 96%; in data set [15], 93.1%.
